Measured values taken from patent US20070105928A1, “6-Pentafluorophenyl-triazolopyrimidines, method for their production and their use for combating pathogenic fungi, in addition to agents containing said substances” (priority 2003, published 2007).

Assays:
Botrytis cinerea = assay: Activity against gray mold on bell pepper leaves caused by Botrytis cinerea, protective application; format: in vivo; conditions: 63 ppm, bell pepper seedlings cultivar Neusiedler Ideal Elite, protective spray, assessed after 5 days; untreated plants 90% infected
Description: The active compounds were prepared as a stock solution with 0.25% by weight of active compound in acetone or DMSO. 1% by weight of the emulsifier Uniperol® EL (wetting agent having emulsifying and dispersing action based on ethoxylated alkylphenols) was added to this solution, and the mixture was diluted with water to the desired concentration. Bell pepper seedlings of the cultivar “Neusiedler Ideal Elite” were, after 2 to 3 leaves were well developed, sprayed to runoff point with an aqueous suspension having the concentration of active compound stated below. The next day, the treated plants were inoculated with a spore suspension of Botrytis cinerea which contained 1.7×10^6 spores/ml in a 2% strength aqueous biomalt solution. The test plants were then placed in a dark climatized chamber at 22-24° C. and high atmospheric humidity. After 5 days, the extent of the fungal infection on the leaves could be determined visually in %.

Pyrenophora teres = assay: Activity against net blotch of barley caused by Pyrenophora teres, protective application; format: in vivo, Pyrenophora [syn. Drechslera] teres; conditions: 250 ppm, barley seedlings cultivar Hanna, protective spray, assessed after 6 days; untreated plants 90% infected
Description: The active compounds were prepared as a stock solution with 0.25% by weight of active compound in acetone or DMSO. 1% by weight of the emulsifier Uniperol® EL (wetting agent having emulsifying and dispersing action based on ethoxylated alkylphenols) was added to this solution, and the mixture was diluted with water to the desired concentration. Leaves of pot-grown barley seedlings of the cultivar “Hanna” were sprayed to run off point with an aqueous suspension having the concentration of active compound stated below. 24 hours after the spray coating had dried on, the test plants were inoculated with an aqueous suspension of Pyrenophora [syn. Drechslera] teres, the causative agent of net blotch. The test plants were subsequently placed in a greenhouse at 20-24° C. and 95-100% relative atmospheric humidity. After 6 days, the extent of development of the disease was determined visually in percent infection of the total leaf area.

## Cc1nc2ncnn2c(N2CCC(C)CC2)c1-c1c(F)c(F)c(F)c(F)c1F [Compound I-3, 5-methyl-6-(pentafluorophenyl)-7-(4-methylpiperidinyl)-1,2,4-triazolo[1,5a]pyrimidine]
Botrytis cinerea
  fungal infection on the leaves: no infection
Pyrenophora teres
  infection of the total leaf area: 5%
